Measurements taken from the NIST ThermoML archive (doi:10.1016/j.jct.2010.01.003).

Conditions: Liquid; for speed of sound: Single path-length method; for mass density: Vibrating tube method

CCCCCCCCCCCCCCCC [hexadecane]
Conditions | mass density [kg/m3] | speed of sound [m/s]
290.65 K, 83 kPa | 775 | 1367.2
291.15 K, 83 kPa | 774.7 | 1365.3
291.65 K, 83 kPa | 774.4 | 1363.4
292.15 K, 83 kPa | 774 | 1361.5
292.65 K, 83 kPa | 773.6 | 1359.6
293.15 K, 83 kPa | 773.3 | 1357.7
298.15 K, 83 kPa | 769.8 | 1338.8
303.15 K, 83 kPa | 766.4 | 1320.2
308.15 K, 83 kPa | 762.9 | 1301.7
310 K, 1110 kPa | 761.74 | –
310 K, 2710 kPa | 762.85 | –
310 K, 5870 kPa | 765.01 | –
310 K, 10770 kPa | 768.25 | –
310 K, 15700 kPa | 771.38 | –
310 K, 20650 kPa | 774.41 | –
310 K, 25600 kPa | 777.3 | –
310 K, 34700 kPa | 782.46 | –
310 K, 36730 kPa | 783.55 | –
313.15 K, 83 kPa | 759.4 | 1283.4
318.15 K, 83 kPa | 756 | 1265.3
323.15 K, 83 kPa | 752.5 | 1247.4
328.15 K, 83 kPa | 749.1 | 1229.8
330 K, 1130 kPa | 748.39 | –
330 K, 2730 kPa | 749.66 | –
330 K, 5890 kPa | 752.03 | –
330 K, 10790 kPa | 755.61 | –
330 K, 15740 kPa | 759.04 | –
330 K, 20680 kPa | 762.35 | –
330 K, 25980 kPa | 765.74 | –
330 K, 36160 kPa | 771.9 | –
330 K, 38240 kPa | 773.11 | –
330 K, 45960 kPa | 777.44 | –
333.15 K, 83 kPa | 745.6 | 1212.3
338.15 K, 83 kPa | 742.2 | 1194.9
343.15 K, 83 kPa | 738.7 | 1177.9
350 K, 1020 kPa | 734.55 | –
350 K, 2630 kPa | 735.94 | –
350 K, 5790 kPa | 738.58 | –
350 K, 10710 kPa | 742.54 | –
350 K, 15650 kPa | 746.27 | –
350 K, 20600 kPa | 749.88 | –
350 K, 25560 kPa | 753.33 | –
350 K, 36140 kPa | 760.24 | –
350 K, 40130 kPa | 762.7 | –
370 K, 1030 kPa | 720.83 | –
370 K, 2620 kPa | 722.35 | –
370 K, 5780 kPa | 725.3 | –
370 K, 10710 kPa | 729.65 | –
370 K, 15660 kPa | 733.76 | –
370 K, 20610 kPa | 737.69 | –
370 K, 25580 kPa | 741.44 | –
370 K, 34010 kPa | 747.41 | –
370 K, 41340 kPa | 752.26 | –
390 K, 1040 kPa | 706.5 | –
390 K, 2630 kPa | 708.23 | –
390 K, 5790 kPa | 711.5 | –
390 K, 10690 kPa | 716.31 | –
390 K, 15650 kPa | 720.83 | –
390 K, 20600 kPa | 725.12 | –
390 K, 25550 kPa | 729.18 | –
390 K, 35160 kPa | 736.52 | –
390 K, 39900 kPa | 739.91 | –
390 K, 44320 kPa | 742.94 | –
390 K, 46900 kPa | 744.61 | –
410 K, 1080 kPa | 692.52 | –
410 K, 2680 kPa | 694.47 | –
410 K, 5830 kPa | 698.12 | –
410 K, 10750 kPa | 703.47 | –
410 K, 15700 kPa | 708.47 | –
410 K, 20630 kPa | 713.12 | –
410 K, 25570 kPa | 717.52 | –
410 K, 30420 kPa | 721.61 | –
410 K, 37220 kPa | 726.98 | –
410 K, 44820 kPa | 732.63 | –
410 K, 50700 kPa | 736.75 | –
430 K, 970 kPa | 677.73 | –
430 K, 2590 kPa | 679.9 | –
430 K, 5770 kPa | 684.04 | –
430 K, 10650 kPa | 689.93 | –
430 K, 15590 kPa | 695.44 | –
430 K, 20560 kPa | 700.57 | –
430 K, 25530 kPa | 705.37 | –
430 K, 30420 kPa | 709.84 | –
430 K, 39590 kPa | 717.56 | –
430 K, 44320 kPa | 721.28 | –
430 K, 48490 kPa | 724.39 | –
450 K, 960 kPa | 662.64 | –
450 K, 2560 kPa | 665.22 | –
450 K, 5750 kPa | 669.98 | –
450 K, 10620 kPa | 676.53 | –
450 K, 15590 kPa | 682.65 | –
450 K, 20560 kPa | 688.27 | –
450 K, 25530 kPa | 693.48 | –
450 K, 30800 kPa | 698.66 | –
450 K, 39150 kPa | 706.2 | –
450 K, 43400 kPa | 709.8 | –
450 K, 45310 kPa | 711.32 | –
470 K, 1070 kPa | 648.42 | –
470 K, 2660 kPa | 651.24 | –
470 K, 5770 kPa | 656.4 | –
470 K, 10730 kPa | 663.85 | –
470 K, 15690 kPa | 670.57 | –
470 K, 20640 kPa | 676.69 | –
470 K, 25530 kPa | 682.28 | –
470 K, 30470 kPa | 687.53 | –
470 K, 38870 kPa | 695.7 | –
470 K, 42790 kPa | 699.27 | –
470 K, 47790 kPa | 703.6 | –
